Test results from patent US20050084528A1, “Anti-platelet aggregation compositions” (priority 2003, published 2005).
Like-named read-outs stand apart in the source and are kept apart here.

Key:
[1] = test system: platelet aggregation induced by PAF; conditions: Saeed et al. 1998; cited from earlier work
[2] = test system: platelet aggregation induced by AA; experiment: Ex vivo platelet aggregation in platelet rich plasma of volunteers after a single oral dose, induced by arachidonic acid (1.6 mM); parameters: species or system human; conditions: for inhibition of platelet aggregation induced by AA (in words): single oral dose, 24 hours
Description: (§1) The PRP samples were treated in vitro with calcium ionophore (A23187, 2.5 μM) or arachidonic acid (AA, 1.6 mM) to induce maximal aggregation. Platelet aggregation was monitored using a Dual-channel Lumi-aggregometer (Model 400, Chronolog Corporation, USA) using 0.45 ml samples of PRP. The resulting aggregation was recorded for all of the samples and a comparison was made between the pre- and post-test drug ingestion aggregation levels. The data was analysed using the Student's t-test and differences were considered significant when probability (p) was <0.05.

[3] = test system: platelet aggregation induced by AA; conditions: Saeed et al. 1998; cited from earlier work
[4] = test system: platelet aggregation induced by A23187; experiment: Ex vivo platelet aggregation in platelet rich plasma of volunteers after a single oral dose, induced by calcium ionophore A23187 (2.5 μM); parameters: species or system human; conditions: for % Inhibition A23187: aspirin 10 mg single oral dose, blood 24 hours after ingestion vs pre-dose, PRP, A23187 2.5 μM; for inhibition of platelet aggregation induced by A23187 (in words): single oral dose, 24 hours
Description: as §1

[5] = test system: platelet aggregation induced by adrenaline; conditions: Saeed et al. 1998; cited from earlier work
[6] = aspirin at a dose of 20 mg or 40 mg
[7] = nimesulide at doses of 25 or 50 mg

Structure (SMILES)	inhibition of platelet aggregation induced by PAF (in words) [1]	% Inhibition AA ([2]; aspirin 10 mg single oral dose, blood 24 hours after ingestion vs pre-dose, PRP, AA 1.6 mM)	inhibition of platelet aggregation induced by AA (in words) ([2]; aspirin 10 mg)	inhibition of platelet aggregation induced by AA (in words) [2, 6]	inhibition of platelet aggregation induced by AA (in words) [3]	% Inhibition A23187 [4]	% Inhibition A23187 ([4]; listed as aspirin)	inhibition of platelet aggregation induced by A23187 (in words) [4, 6]	inhibition of platelet aggregation induced by AA (in words) [2, 7]	inhibition of platelet aggregation induced by A23187 (in words) [4, 7]	inhibition of platelet aggregation induced by adrenaline (in words) [5]
CC(=O)Oc1ccccc1C(=O)O [Aspirin, 2-acetoxybenzoic acid]	inhibit	4%	ineffective	effectively inhibited	inhibit	27%	about 25%	effectively inhibited			
CS(=O)(=O)Nc1ccc([N+](=O)[O-])cc1Oc1ccccc1 [Nimesulide, N-(4-nitro-2-phenoxyphenyl)methanesulfonamide]	inhibit				inhibit				effectively inhibited	effectively inhibited	inhibits
